From patent US20230159511A1, “TETRAHYDROISOQUINOLINE COMPOUNDS AS NRF2 ACTIVATORS” (C4X Discovery Limited, priority 2020, published 2023)

Target: T1, human KEAP1 (N-term, residues 321-609) (Homo sapiens, UniProt Q14145)
T1 construct: human KEAP1 (N-term, residues 321-609)
Assay: KEAP1 Kelch Fluorescence Polarization (FP) Assay
Format: binding
Conditions: inhibition of Kelch domain-NRF2 interaction; 2 nM FITC-labelled NRF2 peptide, 25 nM KEAP1, 1 h room temperature; compounds below 10 nM cannot be differentiated
Experimental: KEAP1 Kelch Fluorescence Polarization (FP) Assay Method
Inhibition of the Kelch domain-NRF2 interaction was determined using a fluorescence polarization-based competition assay in a black 384-well microplate. Compounds were tested at a starting concentration of 10 μM serially diluted 1:3 to generate a 12-point dose response curve on the Biomek FX robot. Each well contained 2 nM FITC-labelled NRF2 peptide (FITC-LDEETGEFL-NH2) and 25 nM human KEAP1 (N-term, residues 321-609) enzyme in a final volume of 20 μL of assay buffer (50 mM Tris-HCl pH 8.0, 100 mM NaCl, 5 mM MgCl2, 0.005% Tween-20, 0.005% BSA, 0.5% DMSO) in the presence of varying concentrations of test compound. Unlabelled peptide (LDEETGEFL-NH2) at 50 μM (negative control) and 0.5% DMSO (positive control) was used to determine the assay window.
After 1 h at room temperature, fluorescence polarization (excitation 470 nm/emission 530 nm) was measured using an Envision plate reader. IC50 values were determined by fitting the data to a four parameter logistic fit using XLfit or XE Runner within ActivityBase. The assay limit is such that compounds below 10 nM cannot be differentiated.

T1 sequence (Q14145 321-609): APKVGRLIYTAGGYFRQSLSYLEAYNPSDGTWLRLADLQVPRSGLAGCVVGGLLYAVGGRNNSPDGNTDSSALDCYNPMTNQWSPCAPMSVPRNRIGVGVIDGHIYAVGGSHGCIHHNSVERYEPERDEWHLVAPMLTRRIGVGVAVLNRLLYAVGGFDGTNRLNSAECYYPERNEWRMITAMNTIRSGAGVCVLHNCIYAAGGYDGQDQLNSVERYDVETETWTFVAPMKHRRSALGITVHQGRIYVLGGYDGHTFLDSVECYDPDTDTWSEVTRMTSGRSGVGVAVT

SMILES | IC50
CNC(=O)CCCOc1cccc2c1[C@@H](CN1C(=O)c3ccccc3C1=O)N(C(=O)[C@@H]1CCCC[C@@H]1C(=O)NC)CC2 [Example 2, (1S,2R)-2-((S)-1-((1,3-dioxoisoindolin-2-yl)methyl)-8-(4-(methylamino)-4-oxobutoxy)-1,2,3,4-tetrahydroisoguinoline-2-carbonyl)-N-methylcyclohexane-1-carboxamide] | 339 nM
CNC(=O)[C@H]1CCCC[C@H]1C(=O)N1CCc2cccc(OCCNC(=O)c3noc(C)c3C)c2[C@H]1CN1C(=O)c2ccccc2C1=O [Example 4, N-(2-(((S)-1-((1,3-dioxoisoindolin-2-yl)methyl)-2-((1R,2S)-2-(methylcarbamoyl)cyclo-hexane-1-carbonyl)-1,2,3,4-tetrahydroisoquinolin-8-yl)oxy)ethyl)-4,5-dimethylisoxazole-3-carboxamide] | 161 nM
CNC(=O)[C@H]1CCCC[C@H]1C(=O)N1CCc2cccc(O[C@H]3CCN(C(C)=O)C3)c2[C@H]1CN1C(=O)c2ccccc2C1=O [Example 5, (1S,2R)-2-((S)-8-(((S)-1-acetylpyrrolidin-3-yl)oxy)-1-((1,3-dioxoisoindolin-2-yl)methyl)-1,2,3,4-tetrahydroisoquinoline-2-carbonyl)-N-methylcyclohexane-1-carboxamide] | 147 nM
Cc1cc(C(=O)NCCOc2cccc3c2[C@@H](CN2C(=O)c4ccccc4C2=O)N(C(=O)[C@@H]2CCCC[C@@H]2C(=O)NC2CC2)CC3)no1 [Example 7, N-(2-(((S)-2-((1R,2S)-2-(cyclopropylcarbamoyl)cyclohexane-1-carbonyl)-1-((1,3-dioxoisoindolin-2-yl)methyl)-1,2,3,4-tetrahydroisoquinolin-8-yl)oxy)ethyl)-5-methylisoxazole-3-carboxamide] | 196 nM
Cc1cc(C(=O)NCCOc2cccc3c2[C@@H](CN2C(=O)c4ccccc4C2=O)N(C(=O)[C@@H]2CCCC[C@@H]2C(=O)N2CC(O)C2)CC3)no1 [Example 8, N-(2-(((S)-1-((1,3-dioxoisoindolin-2-yl)methyl)-2-((1R,2S)-2-(3-hydroxyazetidine-1-carbonyl)cyclohexane-1-carbonyl)-1,2,3,4-tetrahydroisoquinolin-8-yl)oxy)ethyl)-5-methylisoxazole-3-carboxamide] | 1280 nM
Cc1cc(C(=O)NCCOc2cccc3c2[C@@H](CN2C(=O)c4ccccc4C2=O)N(C(=O)[C@@H]2CCCC[C@@H]2C(=O)NC2CCC2)CC3)no1 [Example 9, N-(2-(((S)-2-((1R,2S)-2-(cyclobutylcarbamoyl)cyclo-hexane-1-carbonyl)-1-((1,3-dioxoisoindolin-2-yl)methyl)-1,2,3,4-tetrahydroisoquinolin-8-yl)oxy)ethyl)-5-methylisoxazole-3-carboxamide] | 119 nM
CNC(=O)[C@H]1CCCC[C@H]1C(=O)N1CCc2cccc(OCCNC(=O)c3nc4ccccc4o3)c2[C@H]1CN1C(=O)c2ccccc2C1=O [Example 11, N-(2-(((S)-1-((1,3-dioxoisoindolin-2-yl)methyl)-2-((1R,2S)-2-(methylcarbamoyl)cyclo-hexane-1-carbonyl)-1,2,3,4-tetrahydroisoquinolin-8-yl)oxy)ethyl)benzo[d] oxazole-2-carboxamide] | 37 nM
CNC(=O)[C@H]1CCCC[C@H]1C(=O)N1CCc2cccc(OCCNC(=O)c3noc4ccccc34)c2[C@H]1CN1C(=O)c2ccccc2C1=O [Example 12, N-(2-(((S)-1-((1,3-dioxoisoindolin-2-yl)methyl)-2-((1R,2S)-2-(methylcarbamoyl)cyclo-hexane-1-carbonyl)-1,2,3,4-tetrahydroisoquinolin-8-yl)oxy)ethyl)benzo[d] isoxazole-3-carboxamide] | 56 nM
CNC(=O)[C@H]1CCCC[C@H]1C(=O)N1CCc2cccc(OCCNS(=O)(=O)c3cnoc3C)c2[C@H]1CN1C(=O)c2ccccc2C1=O [Example 13, (1S,2R)-2-((S)-1-((1,3-dioxoisoindolin-2-yl)methyl)-8-(2-((5-methylisoxazole)-4-sulfonamido)ethoxy)-1,2,3,4-tetrahydroisoquinoline-2-carbonyl)-N-methylcyclohexane-1-carboxamide] | 169 nM
CNC(=O)[C@H]1CCCC[C@H]1C(=O)N1CCc2cccc(O[C@H]3CCN(C(=O)c4cncnc4)C3)c2[C@H]1CN1C(=O)c2ccccc2C1=O [Example 14, (1S,2R)-2-((S)-1-((1,3-dioxoisoindolin-2-yl)methyl)-8-(((S)-1-(pyrimidine-5-carbonyl)pyrrolidin-3-yl)oxy)-1,2,3,4-tetrahydroisoquinoline-2-carbonyl)-N-methylcyclohexane-1-carboxamide] | 183 nM
CNC(=O)[C@H]1CCCC[C@H]1C(=O)N1CCc2cccc(O[C@H]3CCN(C(=O)c4cccnc4)C3)c2[C@H]1CN1C(=O)c2ccccc2C1=O [Example 15, (1S,2R)-2-((S)-1-((1,3-dioxoisoindolin-2-yl)methyl)-8-(((S)-1-nicotinoylpyrrolidin-3-yl)oxy)-1,2,3,4-tetrahydroisoquinoline-2-carbonyl)-N-methylcyclohexane-1-carboxamide] | 93 nM
CNC(=O)[C@H]1CCCC[C@H]1C(=O)N1CCc2cccc(O[C@H]3CCN(S(=O)(=O)c4cnoc4C)C3)c2[C@H]1CN1C(=O)c2ccccc2C1=O [Example 16, (1S,2R)-2-((S)-1-((1,3-dioxoisoindolin-2-yl)methyl)-8-(((S)-1-((5-methylisoxazol-4-yl)sulfonyl)pyrrolidin-3-yl)oxy)-1,2,3,4-tetrahydroisoquinoline-2-carbonyl)-N-methylcyclohexane-1-carboxamide] | 366 nM
CNC(=O)[C@H]1CCCC[C@H]1C(=O)N1CCc2cccc(OCCNC(=O)c3nccs3)c2[C@H]1CN1C(=O)c2ccccc2C1=O [Example 18, N-(2-(((S)-1-((1,3-dioxoisoindolin-2-yl)methyl)-2-((1R,2S)-2-(methylcarbamoyl)cyclo-hexane-1-carbonyl)-1,2,3,4-tetrahydroisoquinolin-8-yl)oxy)ethyl)thiazole-2-carboxamide] | 119 nM
CNC(=O)[C@H]1CCCC[C@H]1C(=O)N1CCc2cccc(O[C@H]3CCN(C(=O)C4CC4)C3)c2[C@H]1CN1C(=O)c2ccccc2C1=O [Example 19, (1S,2R)-2-((S)-8-(((S)-1-(cyclopropanecarbonyl)pyrrolidin-3-yl)oxy)-1-((1,3-dioxoisoindolin-2-yl)methyl)-1,2,3,4-tetrahydroisoquinoline-2-carbonyl)-N-methylcyclohexane-1-carboxamide] | 196 nM
CNC(=O)[C@H]1CCCC[C@H]1C(=O)N1CCc2cccc(OCc3cnco3)c2[C@H]1CN1C(=O)c2ccccc2C1=O [Example 21, (1S,2R)-2-((S)-1-((1,3-dioxoisoindolin-2-yl)methyl)-8-(oxazol-5-ylmethoxy)-1,2,3,4-tetrahydroisoquinoline-2-carbonyl)-N-methylcyclohexane-1-carboxamide] | 2250 nM
CNC(=O)[C@H]1CCCC[C@H]1C(=O)N1CCc2cccc(O[C@H]3CCN(C(=O)c4cnc(C)s4)C3)c2[C@H]1CN1C(=O)c2ccccc2C1=O [Example 22, (1S,2R)-2-((S)-1-((1,3-dioxoisoindolin-2-yl)methyl)-8-(((S)-1-(2-methylthiazole-5-carbonyl)pyrrolidin-3-yl)oxy)-1,2,3,4-tetrahydroisoquinoline-2-carbonyl)-N-methylcyclohexane-1-carboxamide] | 32 nM
CNC(=O)[C@H]1CCCC[C@H]1C(=O)N1CCc2cccc(O[C@H]3CCN(C(=O)c4sc(C)nc4C)C3)c2[C@H]1CN1C(=O)c2ccccc2C1=O [Example 23, (1S,2R)-2-((S)-8-(((S)-1-(2,4-dimethylthiazole-5-carbonyl)pyrrolidin-3-yl)oxy)-1-((1,3-dioxoisoindolin-2-yl)methyl)-1,2,3,4-tetrahydroisoquinoline-2-carbonyl)-N-methylcyclohexane-1-carboxamide] | 606 nM
CNC(=O)[C@H]1CCCC[C@H]1C(=O)N1CCc2cccc(O[C@H]3CCN(C(=O)c4csc(C)n4)C3)c2[C@H]1CN1C(=O)c2ccccc2C1=O [Example 24, (1S,2R)-2-((S)-1-((1,3-dioxoisoindolin-2-yl)methyl)-8-(((S)-1-(2-methylthiazole-4-carbonyl)pyrrolidin-3-yl)oxy)-1,2,3,4-tetrahydroisoquinoline-2-carbonyl)-N-methylcyclohexane-1-carboxamide] | 294 nM
CNC(=O)C[C@@H](C)C(=O)N1CCc2cccc(O[C@H]3CCN(C(=O)c4cncs4)C3)c2[C@H]1CN1C(=O)c2ccccc2C1=O [Example 25, (R)-4-((S)-1-((1,3-dioxoisoindolin-2-yl)methyl)-8-(((S)-1-(thiazole-5-carbonyl)pyrrolidin-3-yl)oxy)-3,4-dihydroisoquinolin-2(1H)-yl)-N,3-dimethyl-4-oxobutanamide] | 292 nM
CNC(=O)[C@H]1CCCC[C@H]1C(=O)N1CCc2cccc(O[C@H]3CCN(C(=O)c4cncs4)C3)c2[C@H]1CN1CCCC1=O [Example 26, (1S,2R)-N-methyl-2-((S)-1-((2-oxopyrrolidin-1-yl)methyl)-8-(((S)-1-(thiazole-5-carbonyl)pyrrolidin-3-yl)oxy)-1,2,3,4-tetrahydroisoquinoline-2-carbonyl)cyclohexane-1-carboxamide] | 61 nM
